Assay results: PMC2706098 (Molecular pharmaceutics, 2009)

Columns and labels:
[1] = tested on: LinkCD; assay: UV absorbance at […] nm of quenched aliquots, double-reciprocal plot; format: biochemical, Homo sapiens; Saccharomyces cerevisiae; conditions: read-out: Enzyme kinetics (5-FC) / Km; PBS, 37 °C; CD active site
[2] = tested on: Nc1nc(=O)[nH]cc1F; assay: purified protein; format: biochemical, Saccharomyces cerevisiae; conditions: PBS, 37 °C, one experiment

Row | Molecule | Km [1] [µM] | Vmax [2] [µM/min/mg]
1 | Nc1nc(=O)[nH]cc1F [5-FC, 5-fluorocytosine] | 330 ± 40 | –
2 | CD (yeast cytosine deaminase) (Saccharomyces cerevisiae S288C) | – | 120000
